Measurements reported in US8530433B2, “Use of icariside II in manufacture of products for preventing or treating male or female sexual dysfunction” (Bjo-Biomed Ltd, priority 2008, dated 2013).

Columns and labels:
[1] = system: Porcine vascular endothelial cells (PAE); assay: NOS enzyme activity in vascular endothelial cells (PAE), NOS kit; format: cell-based; conditions: LNNA 10^-5 M
Protocol: (§1) Porcine vascular endothelial cells (PAE) were provided by the Institute of Urology, Peking University. The determination of the effect of icariside II on NOS activity in the endothelial cell is conducted using NOS kit (Cayman Chemical company, Ann Arbor, Mich., USA). Vascular endothelial cells (PAE) were treated with different concentrations of icariside II (0, 10^−9, 10^−8, 10^−7, 10^−6, 10^−5 and 10^−4 M) (sildenafil as the control group). 180 μl lysate was added into each culture well. 20 μl supernatant was used for protein concentration assay with BCA protein kit. And, 100 μl supernatant was analyzed for NOS activity with NOS kit (Cayman Chemical company, Ann Arbor, Mich., USA). NOS activity (units/mg)=[(valueNos-measure−valueNOS-blank)÷(38.3×10^6)]×[(2.15+supernatant volume)÷(15×supernatant volume)]÷[protein concentration of each Petri dish].

PAE-EGFR cells = assay: NOS enzyme activity in EGFR expressing PAE-EGFR cells, NOS kit; format: cell-based, porcine; conditions: PAE-EGFR cells; LNNA 10^-5 M
Protocol: as §1, with “dish]. 1) The EGFR gene was subcloned into pGFP plasmid to construct pGFP-EGFR expression vector. With Liposome transfection reagent (Qigen), pGFP-EGFR was transfected into PAE cells. After the selection with 1800 μg/ml of G418, a single cell clone was selected. Western blot confirms the stable expression of EGFR in the PAE-EGFR cells.” for “dish].”

[2] = system: Primary human corpus cavernosum smooth muscle cells (CCSMCs); assay: NOS activity in corpus cavernosum smooth muscle cells; format: cell-based; conditions: LNNA 4×10^−4 M
Protocol: Primary human corpus cavernosum smooth muscle cells ([…]) were provided by the Andrology Center of Peking University. The […] of the third passage were cultured in six well plates for two days. Then the cells were treated with icariside II or the sildenafil at a concentration of 0, 10^-9, 10^-8, 10^-7, 10^-6, 10^-5 M; or treated with icariside II (0, 10^-9, 10^-8, 10^-7, 10^-6, 10^-5 M) in the presence or absence of LNNA (4×10^-4 M). The control group was cultured with DMEM only. After 24 hours, the cells were washed three times and 180 μl lysis buffer was added into each well; 60 μl cell suspension was taken for protein concentration assay with BCA protein kit; 100 μl cell suspension was taken for NOS activity test. NOS activity (units/mg protein)=[(valueNOS-measure-valueNOS-blank)÷(38.3×10^6)]×[(2.15+supernatant volume)÷(15×S supernatant volume)]÷[protein concentration in each well].

For `NC(=NCCC[C@H](N)C(=O)O)N[N+](=O)[O-]` [LNNA, reference compound], the “effect on the regulatory effect of icariside II on endothelial cell NOS activity” value ([1]; p<0.05) was “significantly inhibited”, the “NOS baseline activity after treatment with NOS inhibitor” value ([1]; PAE cells) was 2.74±0.269 u/mg and the “NOS baseline activity after treatment with NOS inhibitor” value (PAE-EGFR cells) was 3.27±0.319 u/mg. For the same molecule, the “NOS activity after LNNA treatment” value [2] was 0.3 units/mg protein.
